Reference: article PMC6199744, “Development of Chemical Proteomics for the Folateome and Analysis of the Kinetoplastid Folateome” (ACS Infectious Diseases, 2018)
Like-named read-outs stand apart in the source and are kept apart here.

Tests used:
Assay type in all cases: binding
[1] = biological target: T1, HeLa cell extract proteins (Homo sapiens, UniProt Q6ZN16)
T1 construct: endogenous in cells; host or cells: HeLa cell extract
T1 sequence (Q6ZN16 1-1313): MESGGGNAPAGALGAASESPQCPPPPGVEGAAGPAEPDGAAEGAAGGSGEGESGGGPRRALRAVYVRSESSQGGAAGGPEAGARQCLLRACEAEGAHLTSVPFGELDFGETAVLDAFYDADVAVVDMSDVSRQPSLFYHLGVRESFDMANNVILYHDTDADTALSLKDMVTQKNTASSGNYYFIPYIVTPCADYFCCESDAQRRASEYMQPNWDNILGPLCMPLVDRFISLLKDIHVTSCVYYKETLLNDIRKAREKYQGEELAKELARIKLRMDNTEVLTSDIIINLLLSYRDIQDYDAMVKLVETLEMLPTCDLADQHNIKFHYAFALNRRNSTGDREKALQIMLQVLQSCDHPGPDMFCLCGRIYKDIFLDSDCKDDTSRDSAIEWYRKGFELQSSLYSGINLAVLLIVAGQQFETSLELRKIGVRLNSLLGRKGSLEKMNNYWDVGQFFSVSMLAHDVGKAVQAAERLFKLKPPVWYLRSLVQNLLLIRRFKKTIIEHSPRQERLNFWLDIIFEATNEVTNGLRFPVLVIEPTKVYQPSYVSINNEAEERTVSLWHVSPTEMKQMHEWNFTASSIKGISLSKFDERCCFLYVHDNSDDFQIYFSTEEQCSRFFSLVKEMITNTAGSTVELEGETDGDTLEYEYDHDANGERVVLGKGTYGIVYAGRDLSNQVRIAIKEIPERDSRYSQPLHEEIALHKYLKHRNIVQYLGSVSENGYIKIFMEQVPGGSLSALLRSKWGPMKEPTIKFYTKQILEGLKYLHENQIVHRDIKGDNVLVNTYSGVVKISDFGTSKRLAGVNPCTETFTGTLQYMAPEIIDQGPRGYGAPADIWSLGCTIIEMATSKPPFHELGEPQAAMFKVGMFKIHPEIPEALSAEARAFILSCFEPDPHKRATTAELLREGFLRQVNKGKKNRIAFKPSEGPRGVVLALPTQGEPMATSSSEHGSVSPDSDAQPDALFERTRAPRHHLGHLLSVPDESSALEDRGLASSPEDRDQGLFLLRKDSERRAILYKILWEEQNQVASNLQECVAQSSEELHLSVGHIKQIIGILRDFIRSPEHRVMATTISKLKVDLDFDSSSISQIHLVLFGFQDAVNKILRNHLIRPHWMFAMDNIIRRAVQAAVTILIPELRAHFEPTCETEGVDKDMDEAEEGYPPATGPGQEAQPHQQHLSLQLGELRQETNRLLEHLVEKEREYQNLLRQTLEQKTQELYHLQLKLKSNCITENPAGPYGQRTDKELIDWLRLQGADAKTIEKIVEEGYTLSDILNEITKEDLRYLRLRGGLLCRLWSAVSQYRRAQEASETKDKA

[2] = biological target: T2, HeLa cell extract proteins (Homo sapiens, UniProt P62633)
T2 construct: endogenous in cells; host or cells: HeLa cell extract
T2 sequence (P62633 whole entry): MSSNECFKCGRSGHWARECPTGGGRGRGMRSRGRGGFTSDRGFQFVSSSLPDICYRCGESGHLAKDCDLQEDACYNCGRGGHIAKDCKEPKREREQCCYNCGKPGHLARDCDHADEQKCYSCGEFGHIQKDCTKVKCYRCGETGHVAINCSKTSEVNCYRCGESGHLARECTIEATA

[3] = biological target: T3, HeLa cell extract proteins (Homo sapiens, UniProt P40939)
T3 construct: endogenous in cells; host or cells: HeLa cell extract
T3 sequence (P40939 37-763): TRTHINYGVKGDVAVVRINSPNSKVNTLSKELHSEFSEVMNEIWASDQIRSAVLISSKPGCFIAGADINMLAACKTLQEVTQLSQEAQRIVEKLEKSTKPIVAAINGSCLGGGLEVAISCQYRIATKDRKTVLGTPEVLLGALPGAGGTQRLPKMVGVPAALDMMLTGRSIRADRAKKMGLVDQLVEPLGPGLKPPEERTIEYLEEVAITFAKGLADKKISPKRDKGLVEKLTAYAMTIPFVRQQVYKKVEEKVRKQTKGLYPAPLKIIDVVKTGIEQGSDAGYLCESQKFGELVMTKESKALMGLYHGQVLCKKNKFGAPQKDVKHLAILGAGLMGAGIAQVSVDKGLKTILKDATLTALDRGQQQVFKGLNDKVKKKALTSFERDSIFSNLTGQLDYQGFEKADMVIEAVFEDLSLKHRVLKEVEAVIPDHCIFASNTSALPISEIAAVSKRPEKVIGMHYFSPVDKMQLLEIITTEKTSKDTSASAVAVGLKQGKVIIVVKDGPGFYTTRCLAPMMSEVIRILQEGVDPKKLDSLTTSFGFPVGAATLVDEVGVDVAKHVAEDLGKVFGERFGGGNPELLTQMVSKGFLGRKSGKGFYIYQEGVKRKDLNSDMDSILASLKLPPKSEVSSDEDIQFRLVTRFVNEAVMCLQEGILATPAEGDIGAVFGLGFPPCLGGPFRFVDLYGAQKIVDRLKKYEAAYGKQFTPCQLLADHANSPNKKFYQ

[4] = biological target: T4, HeLa cell extract proteins (Homo sapiens, UniProt Q53G59)
T4 construct: endogenous in cells; host or cells: HeLa cell extract
T4 sequence (Q53G59 1-568): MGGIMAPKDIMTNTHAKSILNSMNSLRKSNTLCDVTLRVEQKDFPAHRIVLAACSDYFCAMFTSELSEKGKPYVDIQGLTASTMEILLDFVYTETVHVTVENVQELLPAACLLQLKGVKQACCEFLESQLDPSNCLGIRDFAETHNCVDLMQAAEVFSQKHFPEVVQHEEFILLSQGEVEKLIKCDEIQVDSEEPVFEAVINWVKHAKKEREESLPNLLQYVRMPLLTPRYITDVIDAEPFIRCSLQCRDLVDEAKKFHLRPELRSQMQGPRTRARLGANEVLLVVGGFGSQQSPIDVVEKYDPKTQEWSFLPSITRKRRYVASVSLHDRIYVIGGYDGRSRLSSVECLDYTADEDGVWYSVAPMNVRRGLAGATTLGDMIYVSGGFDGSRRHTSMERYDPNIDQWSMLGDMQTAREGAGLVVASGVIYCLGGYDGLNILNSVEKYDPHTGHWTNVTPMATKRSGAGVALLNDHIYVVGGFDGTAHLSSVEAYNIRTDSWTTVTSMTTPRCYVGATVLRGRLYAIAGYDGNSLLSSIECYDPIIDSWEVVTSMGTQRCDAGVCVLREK

[5] = biological target: T5, HeLa cell extract proteins (Homo sapiens, UniProt P25787)
T5 construct: endogenous in cells; host or cells: HeLa cell extract
T5 sequence (P25787 1-234): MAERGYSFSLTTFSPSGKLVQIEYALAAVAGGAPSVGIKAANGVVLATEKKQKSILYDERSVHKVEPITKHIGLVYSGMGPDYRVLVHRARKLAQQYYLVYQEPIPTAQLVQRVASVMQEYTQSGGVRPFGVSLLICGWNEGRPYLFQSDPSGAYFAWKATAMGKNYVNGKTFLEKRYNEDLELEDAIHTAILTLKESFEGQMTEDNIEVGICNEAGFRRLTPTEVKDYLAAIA

[6] = biological target: T6, HeLa cell extract proteins (Homo sapiens, UniProt P26641)
T6 construct: endogenous in cells; host or cells: HeLa cell extract
T6 sequence (P26641 whole entry): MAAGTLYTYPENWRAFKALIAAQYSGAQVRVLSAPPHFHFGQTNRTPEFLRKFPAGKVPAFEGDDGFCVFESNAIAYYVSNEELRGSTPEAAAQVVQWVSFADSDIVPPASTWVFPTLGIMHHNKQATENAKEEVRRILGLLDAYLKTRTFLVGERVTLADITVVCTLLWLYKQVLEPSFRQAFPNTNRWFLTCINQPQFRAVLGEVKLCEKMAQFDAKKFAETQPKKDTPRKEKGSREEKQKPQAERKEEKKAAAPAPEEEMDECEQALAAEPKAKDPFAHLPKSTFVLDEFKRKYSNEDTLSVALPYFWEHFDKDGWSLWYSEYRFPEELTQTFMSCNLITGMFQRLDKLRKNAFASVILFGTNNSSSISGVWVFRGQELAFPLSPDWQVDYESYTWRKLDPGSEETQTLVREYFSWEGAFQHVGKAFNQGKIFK

[7] = HeLa, protein KLHL12 (KELCH-LIKE PROTEIN 12)

SMILES	fold changes relative to vehicle control ([1]; HeLa, protein MAP3K15)	fold changes relative to vehicle control ([2]; HeLa, captured protein CNBP)	fold changes relative to vehicle control ([3]; HeLa, protein HADHA)	fold changes relative to vehicle control [4, 7]	fold changes relative to vehicle control ([5]; HeLa, captured protein PSMA2)	fold changes relative to vehicle control ([6]; HeLa, protein EEF1G)	fold changes relative to vehicle control ([1]; captured protein MAP3K15, HeLa)	fold changes relative to vehicle control ([2]; protein CNBP, HeLa)	fold changes relative to vehicle control ([3]; protein HADHA, HeLa)	fold changes relative to vehicle control ([4]; protein KLHL12, HeLa)	fold changes relative to vehicle control ([5]; protein PSMA2, HeLa)	fold changes relative to vehicle control ([6]; protein EEF1G, HeLa)	also measured
Nc1nc2c(c(=O)[nH]1)N(C=O)C(CNc1ccc(C(=O)N[C@@H](CCC(=O)O)C(=O)O)cc1)CN2 (stereo partly drawn) [LEU, leucovorin]	1	0.98	0.9	1.36	0.98	1	–	–	–	–	–	–	–
Nc1nc2[nH]cc(CCc3ccc(C(=O)N[C@@H](CCC(=O)O)C(=O)O)cc3)c2c(=O)[nH]1 [PTX, pemetrexed]	–	–	–	–	–	–	–	–	–	–	–	–	fold changes relative to vehicle control [1]: 1.07; fold changes relative to vehicle control [2]: 1.14; fold changes relative to vehicle control [3]: 0.89; fold changes relative to vehicle control [4]: 1.07; fold changes relative to vehicle control [5]: 1.02; fold changes relative to vehicle control [6]: 1.05
CCCCCCOc1ccc(Cc2cnc(N)nc2N)cc1 [compound 1]	–	–	–	–	–	–	1.03	1.26	1	1.15	1.14	1.31	–
CCCCCCOc1cccc(Cc2cnc(N)nc2N)c1 [compound 2]	–	–	–	–	–	–	1.02	1.8	1.45	1.3	1.17	1.67	–
Nc1nc2cccc(-c3ccccc3)c2n1Cc1ccc(Cl)c(Cl)c1 [compound 3]	–	–	–	–	–	–	1.01	0.83	1.07	0.97	0.95	0.94	–
NCCOCCOCC(=O)Nc1nc2ncc(CNc3ccc(C(=O)NC(CCC(=O)O)C(=O)O)cc3)nc2c(=O)[nH]1 (stereo not drawn) [compound 6]	1.03	1.3	1.05	1.05	1.05	1.15	–	–	–	–	–	–	–
NCCCNc1ccc(C(=O)NC(CCC(=O)O)C(=O)O)cc1 (stereo not drawn) [compound 7]	1.1	1.04	0.99	1.31	1.02	0.94	–	–	–	–	–	–	–
